Measurements: patent US10851082B2, “Substituted aromatic n-heterocyclic compounds as inhibitors of mitogen-activated protein kinase interacting kinase 1 (MNK1) and 2 (MNK2)” (Northwestern University, priority 2015, dated 2020)
Like-named read-outs stand apart in the source and are kept apart here.

How the values were obtained:
MV4-11 cells = experiment: Cell viability assay (CellTiter-Glo), MV4-11; type: cell-based; conditions: Homo sapiens
Procedure: (§1) To measure the ability of the new Mnk1/2 inhibitors to kill cancer cells in vitro, U937 or MV4-11 cells were incubated with different concentrations of test compounds and analyzed for apoptosis and cell viability at 5 and 24 hours post-treatment.

Mnk1 [1] = molecular target: T1, Mnk1 (Homo sapiens (Human), UniProt Q9BUB5); experiment: Mnk1 kinase inhibition, ADP-Glo ADP monitoring assay; type: biochemical; conditions: read-out: Mnk1 IC50
Target sequence in this assay (Q9BUB5 whole entry): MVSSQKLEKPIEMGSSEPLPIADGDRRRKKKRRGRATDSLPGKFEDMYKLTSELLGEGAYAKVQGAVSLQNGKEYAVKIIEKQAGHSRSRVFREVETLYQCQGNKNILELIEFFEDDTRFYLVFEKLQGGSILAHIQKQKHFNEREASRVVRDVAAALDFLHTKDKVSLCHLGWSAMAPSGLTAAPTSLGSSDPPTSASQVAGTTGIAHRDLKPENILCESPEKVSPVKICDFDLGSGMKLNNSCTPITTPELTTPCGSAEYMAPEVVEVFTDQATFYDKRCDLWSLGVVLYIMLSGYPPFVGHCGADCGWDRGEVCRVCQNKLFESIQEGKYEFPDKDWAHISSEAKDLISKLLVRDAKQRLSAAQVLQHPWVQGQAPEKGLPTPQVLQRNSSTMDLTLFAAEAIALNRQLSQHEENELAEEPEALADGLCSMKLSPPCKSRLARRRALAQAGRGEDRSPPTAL
Procedure: (§2) The synthesized compounds then were tested for inhibition of the kinase activity (IC50) of Mnk1 and/or Mnk2 using the ADP monitoring assay for kinases described in Zegzouti, H.; Zdanovskaia, M.; Hsiao, K.; Goueli, S. A., ADP-Glo: A Bioluminescent and homogeneous ADP monitoring assay for kinases.

Mnk1 [2] = experiment: Cellular inhibition of Mnk1, flow cytometry of phospho-eIF-4E (Ser209), U937 cells; type: cell-based; conditions: read-out: U937 pEIF4E IC50, phospho-eIF-4E Ser209, flow cytometry
Procedure: (§3) To evaluate inhibition of Mnk1 in cells, we utilized a flow cytometry-based assay based on activation of eIF-4E, the downstream target of Mnk1. The assay utilizes flow cytometry to quantitatively measure the amount of eIF-4E that is phosphorylated at residue Ser209 in cell lysate from U937 or MV4-11 cell lines. Cells grown in the presence of serum were treated with vehicle or test compounds across a range of concentrations. Levels of phospho-eIF-4E were measured and IC50 values were determined by logistic regression to quantify the potency of each compound.

U937 cells = experiment: Cell viability assay (CellTiter-Glo), U937; type: cell-based; conditions: Homo sapiens
Procedure: as §1

Mnk1 [3] = experiment: Cellular inhibition of Mnk1, flow cytometry of phospho-eIF-4E (Ser209), MV4-11 cells; type: cell-based; conditions: read-out: MV4-11 pEIF4E IC50, phospho-eIF-4E Ser209, flow cytometry
Procedure: as §3

Mnk2 = Mnk2 (Homo sapiens (Human), UniProt Q9HBH9); experiment: Mnk2 kinase inhibition, ADP-Glo ADP monitoring assay; type: biochemical; conditions: ADP-Glo kinase assay; read-out: Mnk2 IC50
Chain of Mnk2 (Q9HBH9 whole entry): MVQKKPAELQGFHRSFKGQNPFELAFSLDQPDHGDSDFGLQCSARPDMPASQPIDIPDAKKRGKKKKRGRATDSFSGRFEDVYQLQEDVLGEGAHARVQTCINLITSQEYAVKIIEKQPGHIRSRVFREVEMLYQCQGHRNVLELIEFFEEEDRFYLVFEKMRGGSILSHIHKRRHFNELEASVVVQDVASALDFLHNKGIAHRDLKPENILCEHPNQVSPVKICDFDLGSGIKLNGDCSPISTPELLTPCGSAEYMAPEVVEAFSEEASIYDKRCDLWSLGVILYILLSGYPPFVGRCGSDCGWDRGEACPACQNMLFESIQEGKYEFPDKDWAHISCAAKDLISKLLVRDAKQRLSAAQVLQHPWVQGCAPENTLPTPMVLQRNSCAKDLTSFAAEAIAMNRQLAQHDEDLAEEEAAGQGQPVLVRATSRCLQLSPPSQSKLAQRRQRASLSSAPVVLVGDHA
Procedure: as §2

Mnk1 [4] = molecular target: T1, Mnk1; experiment: Cellular inhibition of Mnk1, flow cytometry of phospho-eIF-4E (Ser209), U937 cells; type: cell-based; conditions: phospho-eIF-4E Ser209, flow cytometry, read-out: U937 pEIF4E IC50
Target sequence in this assay (Q9BUB5 whole entry, looked up): as the sequence (Q9BUB5 whole entry) above
Procedure: as §3

Mnk1 [5] = molecular target: T1, Mnk1; experiment: Cellular inhibition of Mnk1, flow cytometry of phospho-eIF-4E (Ser209), MV4-11 cells; type: cell-based; conditions: phospho-eIF-4E Ser209, flow cytometry, read-out: MV4-11 pEIF4E IC50
Target sequence in this assay (Q9BUB5 whole entry, looked up): as the sequence (Q9BUB5 whole entry) above
Procedure: as §3

[6] = MV4-11 cells, ATP levels with CellTiter-Glo, read-out: MV4-11 viability EC50
[7] = U-937, U937 cells, ATP levels with CellTiter-Glo, read-out: U937 viability EC50
[8] = MV4-11, read-out: MV4-11 viability EC50
[9] = U-937, read-out: U937 viability EC50

SMILES	EC50 (MV4-11 cells; [6]) [nM]	IC50 (Mnk1 [1]) [nM]	IC50 (Mnk1 [2]) [nM]	EC50 (U937 cells; [7]) [nM]	IC50 (Mnk1 [3]) [nM]	IC50 (Mnk2) [nM]	EC50 (MV4-11 cells; [8]) [nM]	IC50 (Mnk1 [4]) [nM]	EC50 (U937 cells; [9]) [nM]	IC50 (Mnk1 [5]) [nM]
Clc1cccc(-n2cc(-c3ccnc(NCCc4c[nH]cn4)n3)cn2)c1 [NUCC-0054135]	240	6000	81	3400	66	–	–	–	–	–
CCn1cncc1CNc1nccc(-c2cnn(-c3cccc(OC)c3)c2)n1 [NUCC-0054136]	4500	10000	140	10000	100	–	–	–	–	–
CN(C)CCNc1nccc(-c2cnn(C)c2)n1 [NUCC-0060898]	190	5000	42	13000	35	–	–	–	–	–
c1ccc2c(c1)ccn2-c1ccnc(NCCc2ccncc2)n1 [NUCC-0060954]	410	–	–	2600	–	–	–	–	–	–
c1ccc2c(c1)ncn2-c1ccnc(NCCc2ccncc2)n1 [NUCC-0060957]	120	–	–	5300	–	–	–	–	–	–
c1ccc2c(c1)ccn2-c1ccnc(NCCc2cnc[nH]2)n1 [NUCC-0060958]	–	900	230	–	47	95	–	–	–	–
c1ccc2c(c1)ncn2-c1ccnc(NC2CCOC2)n1 (stereo not drawn) [NUCC-0125583]	620	–	–	> 10000	–	9.5	–	–	–	–
c1ccc2c(c1)ncn2-c1ccnc(Nc2ccncc2)n1 [NUCC-0125585]	310	140	51	10000	40	–	–	–	–	–
c1ccc2c(c1)ncn2-c1ccnc(NC2CCNC2)n1 (stereo not drawn) [NUCC-0125592]	80	150	1100	> 10000	69	40	–	–	–	–
Clc1cnc(NCCc2cnc[nH]2)nc1-n1cnc2ccccc21 [NUCC-0175695]	1000	530	630	> 10000	370	72	–	–	–	–
Clc1cnc(NCCc2ccncc2)nc1-n1cnc2ccccc21 [NUCC-0175697]	350	–	–	7000	–	–	–	–	–	–
O[C@@H]1CC[C@H](Nc2nccc(-n3cnc4ccccc43)n2)C1 [NUCC-0176144]	–	150	–	–	–	28	170	78	5700	78
c1ccc2c(c1)ncn2-c1ccnc(N[C@H]2CCOC2)n1 [NUCC-0176148]	440	–	–	> 10000	–	46	–	–	–	–
O[C@H]1CC[C@H](Nc2nccc(-n3cnc4ccccc43)n2)C1 [NUCC-0176163]	–	200	–	–	–	41	220	75	8100	74
O[C@H]1CC[C@@H](Nc2nccc(-n3cnc4ccccc43)n2)C1 [NUCC-0176164]	–	100	–	–	–	26	180	62	> 10000	36
Fc1cnc(NCCc2ccncc2)nc1-n1cnc2ccccc21 [NUCC-0176281]	240	330	81	3400	66	49	–	–	–	–
FC(F)(F)c1cnc(NCCc2ccncc2)nc1-n1cnc2ccccc21 [NUCC-0176282, 4-(1H-benzo[d]imidazol-1-yl)-N-(2-(pyridin-4-yl)ethyl)-5-(trifluoromethyl)pyrimidin-2-amine]	4500	93	140	10000	100	28	–	–	–	–
